The values that follow come from US11826351B2, “Compounds useful as kinase inhibitors” (Loxo Oncology, Inc., priority 2015, dated 2023).

Assay [1] deals with OCI-Ly10 human DLBCL cells. In words: OCI-Ly10 anti-proliferative activity (Resazurin). The note with it: OCI-Ly10 cells, 72 h compound treatment, Resazurin, read-out: Proliferation Assay OCI-Ly10-20% FBS. The format is cell-based. Summed up:
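A separate untreated plate gave the Day 0 reading, measured by Resazurin fluorescence at 590 nm after 5 h. The average Day 0 value was subtracted from each treated well, and results were expressed as percent of DMSO control. IC50 values came from a log[Inhibitor] vs response Variable Slope fit in Graphpad prism.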
A general note: Resazurin is reduced to fluorescent resorufin, in cell work by metabolically active cells.

Assay [2] addresses T1, Recombinant BTK^WT kinase (Homo sapiens, UniProt Q06187).
T1 construct: purchased Invitrogen
In words: BTK WT binding affinity (LanthaScreen TR-FRET). The conditions noted are these: Kinase Tracer 236, 5 h incubation. The gist of the method:
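IC50 obtained by variable-slope fit of TR-FRET signal (ex 340 nm; em 615 and 665 nm) versus inhibitor concentration. Reaction held for 5 h in LanthaScreen Kinase Buffer A with 2.5 nM His-tagged BTK^WT, 15 nM Kinase Tracer 236 and 2 nM Eu anti-His antibody.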
In general terms: In TR-FRET formats the signal depends on donor and acceptor labels being close together.

Assay [3] concerns the target T2, Recombinant EGFR (Homo sapiens, UniProt P00533).
T2 construct: purchased Invitrogen
In words: EGFR binding affinity (LanthaScreen TR-FRET). The note with it: Kinase Tracer 199, 5 h incubation. The gist of the method:
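Compounds were titrated against recombinant EGFR and binding was followed by LanthaScreen time-resolved FRET.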

Assay [4] has as its target T3, Recombinant BTK^C481S kinase (Homo sapiens, UniProt Q06187, C481S).
T3 construct: purchased SignalChem
In words: BTK C481S binding affinity (LanthaScreen TR-FRET). The note with it: Kinase Tracer 236, 5 h incubation. Summed up: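 BTK C481S tracer-displacement TR-FRET: 5 nM His-tagged kinase, 2 nM Eu anti-His antibody and 30 nM Kinase Tracer 236 incubated with titrated inhibitor for 5 h in Kinase Buffer A. Read at 340 nm excitation, 615/665 nm emission; IC50 from variable-slope log[inhibitor]–response fit.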

Where two headings read alike, the source gives them in different places.

T3 sequence (Q06187 whole entry C481S): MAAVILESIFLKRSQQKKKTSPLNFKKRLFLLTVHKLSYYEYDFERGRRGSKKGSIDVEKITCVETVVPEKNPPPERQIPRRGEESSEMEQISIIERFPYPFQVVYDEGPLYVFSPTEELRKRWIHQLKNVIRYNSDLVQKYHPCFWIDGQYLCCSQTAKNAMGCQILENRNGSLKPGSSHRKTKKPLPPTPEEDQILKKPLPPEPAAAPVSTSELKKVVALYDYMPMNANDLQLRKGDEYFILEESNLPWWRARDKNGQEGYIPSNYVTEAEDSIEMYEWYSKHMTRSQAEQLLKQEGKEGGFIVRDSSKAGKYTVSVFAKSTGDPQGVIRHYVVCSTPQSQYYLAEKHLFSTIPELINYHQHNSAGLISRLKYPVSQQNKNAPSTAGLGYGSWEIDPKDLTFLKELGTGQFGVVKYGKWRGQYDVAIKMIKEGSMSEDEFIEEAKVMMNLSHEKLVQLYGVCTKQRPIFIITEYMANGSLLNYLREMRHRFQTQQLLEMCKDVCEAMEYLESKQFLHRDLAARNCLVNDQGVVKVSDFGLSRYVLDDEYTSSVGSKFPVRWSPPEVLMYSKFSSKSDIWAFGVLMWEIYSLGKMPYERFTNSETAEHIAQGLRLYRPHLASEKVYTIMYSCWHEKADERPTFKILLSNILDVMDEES
T1 sequence (Q06187 whole entry): as the sequence (Q06187 whole entry C481S) above, with S481C counted along it
T2 sequence (P00533 25-1210): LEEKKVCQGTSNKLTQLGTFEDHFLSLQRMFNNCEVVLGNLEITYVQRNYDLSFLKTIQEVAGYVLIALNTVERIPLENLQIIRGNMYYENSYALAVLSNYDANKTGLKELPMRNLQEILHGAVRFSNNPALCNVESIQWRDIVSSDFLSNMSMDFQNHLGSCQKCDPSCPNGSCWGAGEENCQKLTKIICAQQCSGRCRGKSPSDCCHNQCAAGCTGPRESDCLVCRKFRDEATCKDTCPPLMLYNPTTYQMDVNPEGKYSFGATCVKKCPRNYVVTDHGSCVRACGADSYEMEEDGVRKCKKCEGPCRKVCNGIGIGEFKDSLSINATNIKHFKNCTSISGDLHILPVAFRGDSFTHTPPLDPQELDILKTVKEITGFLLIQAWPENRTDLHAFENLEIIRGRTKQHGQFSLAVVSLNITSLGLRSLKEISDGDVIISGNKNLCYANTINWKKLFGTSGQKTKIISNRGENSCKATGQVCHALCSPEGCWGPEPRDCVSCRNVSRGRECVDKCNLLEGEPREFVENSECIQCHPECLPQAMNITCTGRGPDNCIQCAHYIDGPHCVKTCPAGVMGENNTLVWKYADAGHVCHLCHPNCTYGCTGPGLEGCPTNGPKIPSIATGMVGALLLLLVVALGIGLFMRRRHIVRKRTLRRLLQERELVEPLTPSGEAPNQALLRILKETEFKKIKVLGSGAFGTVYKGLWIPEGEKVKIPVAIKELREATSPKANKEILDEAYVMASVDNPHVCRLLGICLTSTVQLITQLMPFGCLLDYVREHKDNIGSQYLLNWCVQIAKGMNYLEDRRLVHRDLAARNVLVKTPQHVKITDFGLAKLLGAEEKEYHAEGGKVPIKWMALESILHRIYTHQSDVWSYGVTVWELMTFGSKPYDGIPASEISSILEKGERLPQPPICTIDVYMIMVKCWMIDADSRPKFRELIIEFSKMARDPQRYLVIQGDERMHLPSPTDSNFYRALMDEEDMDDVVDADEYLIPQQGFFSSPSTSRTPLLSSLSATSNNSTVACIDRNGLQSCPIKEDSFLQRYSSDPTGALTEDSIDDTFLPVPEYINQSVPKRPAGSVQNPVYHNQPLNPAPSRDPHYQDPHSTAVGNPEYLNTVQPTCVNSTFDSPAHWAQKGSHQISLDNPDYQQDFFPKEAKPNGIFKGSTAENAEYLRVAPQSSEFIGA

Take `COc1ccccc1C(=O)NCc1ccc(-c2nn(C3CCOCC3F)c(N)c2C(N)=O)cc1` (single isomer, unassigned) [Example 96, 5-amino-1-[3-fluorotetrahydropyran-4-yl]-3-[4-[[(2-methoxybenzoyl)amino]methyl]phenyl]pyrazole-4-carboxamide]: the IC50 in assay [1] is 10 to 100 nM; in assay [2] it was under 10 nM; in assay [3], 1000 to 10000 nM; in assay [4], under 10 nM.

On to `COc1ccccc1C(=O)NCc1ccc(-c2nn(C3CC(C)OC(C)C3)c(N)c2C(N)=O)cc1` (stereo not drawn) [Example 104, 5-amino-1-(2,6-dimethyltetrahydropyran-4-yl)-3-[4-[[(2-methoxybenzoyl)amino]methyl]phenyl]pyrazole-4-carboxamide], for which the IC50 in assay [1] (Homo sapiens, OCI-Ly10, 72 h) was 100 to 1000 nM; in assay [2] it was 10 to 100 nM; in assay [3], 1000 to 10000 nM; in assay [4] it was under 10 nM.

In the case of `COc1ccccc1C(=O)NCc1ccc(-c2nn(C3CCCC3)c(N)c2C(N)=O)c(C)c1` [Example 101, 5-amino-1-cyclopentyl-3-[4-[[(2-methoxybenzoyl)amino]methyl]-2-methyl-phenyl]pyrazole-4-carboxamide], the IC50 is 100 to 1000 nM in assay [1] (Homo sapiens, OCI-Ly10, 72 h); 10 to 100 nM in assay [2]; over 10000 nM in assay [3]; under 10 nM in assay [4].

For `COc1ccccc1C(=O)NCc1ccc(-c2nn(C3CCOC3C)c(N)c2C(N)=O)cc1` (single isomer, unassigned) [Example 77, 5-amino-3-[4-[[(2-methoxybenzoyl)amino]methyl]phenyl]-1-[2-methyltetrahydrofuran-3-yl]pyrazole-4-carboxamide], the IC50 was 10 to 100 nM in assay [1], under 10 nM in assay [2], 100 to 1000 nM in assay [3] and under 10 nM in assay [4].

Consider `COc1ccccc1C(=O)NCc1ccc(-c2nn([C@H]3CCOC3)c(C(F)F)c2C(N)=O)cc1` [Example 112, 5-(difluoromethyl)-3-[4-[[(2-methoxybenzoyl)amino]methyl]phenyl]-1-[(3S)-tetrahydrofuran-3-yl]pyrazole-4-carboxamide], for which the IC50 in assay [1] (Homo sapiens, OCI-Ly10, 72 h) is over 10000 nM; in assay [2], 100 to 1000 nM; in assay [3] it was over 10000 nM; in assay [4], 100 to 1000 nM.

Take `COc1ccc(F)cc1C(=O)NCc1ccc(-c2nn(CC(C)C(F)(F)F)c(N)c2C(N)=O)cc1` (stereo not drawn) [Example 176, 5-amino-3-[4-[[(5-fluoro-2-methoxy-benzoyl)amino]methyl]phenyl]-1-(3,3,3-trifluoro-2-methyl-propyl)pyrazole-4-carboxamide]: the IC50 in assay [1] (Homo sapiens, OCI-Ly10, 72 h) was 10 to 100 nM; in assay [2] it was under 10 nM; in assay [3], 1000 to 10000 nM; in assay [4], under 10 nM.

As to `COc1ccccc1C(=O)NCc1ccc(-c2nn(C(CO)CCl)c(N)c2C(N)=O)cc1` (stereo not drawn) [Example 66, 5-amino-1-[1-(chloromethyl)-2-hydroxy-ethyl]-3-[4-[[(2-methoxybenzoyl)amino]methyl]phenyl]pyrazole-4-carboxamide], the IC50 in assay [1] (Homo sapiens, OCI-Ly10, 72 h) is 1000 to 10000 nM; in assay [2] it was 10 to 100 nM; in assay [3] it was 1000 to 10000 nM; in assay [4], under 10 nM.

As for `COc1ccc(F)cc1C(=O)NCc1ccc(-c2nn([C@H](C)C(F)(F)F)c(N)c2C(N)=O)cc1` (single isomer, unassigned) [Example 163a, 5-amino-3-[4-[[(5-fluoro-2-methoxy-benzoyl)amino]methyl]phenyl]-1-(2,2,2-trifluoro-1-methyl-ethyl)pyrazole-4-carboxamide], the IC50 is under 10 nM in assay [1], under 10 nM in assay [2], 1000 to 10000 nM in assay [3] and under 10 nM in assay [4].

With `COc1ccccc1C(=O)NC(C)c1ccc(-c2nn(C3CCCC3)c(N)c2C(N)=O)cc1` (stereo not drawn) [Example 79, 5-amino-1-cyclopentyl-3-[4-[1-[(2-methoxybenzoyl)amino]ethyl]phenyl]pyrazole-4-carboxamide], the IC50 in assay [1] (Homo sapiens, OCI-Ly10, 72 h) was in the range of 1000 to 10000 nM; in assay [2], 100 to 1000 nM; in assay [3], 1000 to 10000 nM; in assay [4], 100 to 1000 nM.
